US11571454B2, “Anticancer peptides that synergistically enhance chemotherapeutic potency” (The Penn State Research Foundation, priority 2017, dated 2023)

Test system: NCI/ADR-RES (drug-resistant ovarian carcinoma) cells
Experiment: MTT cytotoxicity assay, NCI/ADR-RES
Type: cell-based, human
Protocol: All cells were cultured using standard culture conditions at 37° C., 5% CO2, and 95% humidity. A549 (CCL-185), OVCAR-3 (HTB-161), T24 (HTB-4), and NCI/ADR-RES were cultured in RPMI-1640 supplemented with 10% v/v fetal bovine serum (FBS), 2 mM L-glutamine (L-Gln), 10,000 units penicillin/mL, 10 mg/mL streptomycin, and 25 μg/mL amphotericin B. HUVEC (PCS-100-010) cells were cultured in Vascular Cell Basal Media (PCS-100-030) supplemented with an Endothelial Cell Growth Kit-VEGF (PCS-100-041) and 10 μg/mL gentamycin in culture flasks coated with 0.1% gelatin by incubating at 37° C. for 15 min. NL20 (CRL-2503) cells were cultured in Ham's F12 supplemented with 1.5 g/L sodium bicarbonate, 2.7 g/L glucose, 2.0 mM L-glutamine, 0.1 mM nonessential amino acids, 0.005 mg/ml insulin, 10 ng/ml epidermal growth factor, 0.001 mg/ml transferrin, 500 ng/ml hydrocortisone and 4% fetal bovine serum, as advised by American Type Culture Collection (ATCC).
Viability was calculated by comparing to an untreated control.
All experiments were performed with n>6.
Cell viability experiments were completed n>6 in two independent experiments and analyzed using GraphPad Prism 8 to fit curves and calculate IC50 values using inhibitor vs. normalized response non-linear regression model. IC50 values are reported as mean values±standard deviation. […] Pore size frequency distribution was completed by ImageJ FIJI on 4 independent cells and n=30 pores from SEM images. UV-Vis OD600 and CD spectra are means of 5 and 3 replicates, respectively and reported as mean±standard deviation. Individual UV-Vis and CD spectra, as well as fluorescent confocal and TEM micrographs, shown are representative plots from three individual experiments. CD data is with a variance in ellipticity of 0.2 millidegrees at each wavelength. Relative fluorescence data calculated from fluorescent confocal images represents the average of 10 independent measurements±standard deviation. For spheroid volume analysis, a Kruskal-Wallis test and Dunn's multiple comparisons test was performed using GraphPad Prism 8.

In the case of H-KRWHWWRRHWVVW-NH2 [MAD1], the IC50 (48 hours treatment, MTT, read-out: Cancerous (IC50, μM) NCl/ADR-RES) is reported as 85.6 µM, the “Therapeutic Index NCl/ADR-RES” value (IC50-HUVEC/IC50-NCI/ADR-RES) is reported as 1.2 and the “cytotoxic activity against NCI/ADR-RES” value (result in words) is reported as “moderate activity”.
